This is an account of results in US20130115271A1, “PREDICTORS OF PHARMACOKINETIC AND PHARMACODYNAMIC DISPOSITION OF CARRIER-MEDIATED AGENTS” (THE UNIVERSITY OF NORTH CAROLINA AT CHAPEL HILL, priority 2010, published 2013).

Data set [1] has as its system absolute neutrophil count (ANC). In words: Degree of neutropenia in phase I studies of S-CKD602 and NL-CKD602. In kind it is in vivo, human. As to conditions: patients with refractory solid tumors. The text has this:
(§1) To examine the relationship between S-CKD602 PK and monocytes (MO) in patients, we evaluated the degree of neutropenia and monocytopenia as part of phase I studies of S-CKD602 and non-liposomal CKD-602 (NL-CKD602) in patients with refractory solid tumors. After administration of NL-CKD602, the % decrease at nadir in absolute neutrophil count (ANC) and MO were 86±11% and 87±12%, respectively (P>0.05). For NL-CKD602, the ratio of % decrease in MO to ANC was 1.1±0.4. After administration of S-CKD602, the % decrease at nadir in ANC and MO were 42±30% and 58±34%, respectively (P=0.001). For S-CKD602, the ratio of % decrease in MO to ANC was 2.1±2.0. The relationship between the % decrease in MO at nadir and CL of encapsulated CKD-602 and the release of CKD-602 from S-CKD602 in plasma are presented in FIGS. 3 and 4, respectively. […] The CL of encapsulated drug and release of drug from the liposome in plasma is related to a reduction in MO. […] Consistent with the PK-PD interaction between S-CKD602 and MO we also have reported that decreased DOXIL® CL from cycle 1 to 3 is related to a reduction in MO during each subsequent cycle (Gabizon et al., (1994) Cancer Res. 54: 987-992; La-Beck et al., (2009) J. Clin. Oncol. 27(15S)).

For the next data set, the system named is monocytes (MO). Put plainly: Degree of monocytopenia in phase I studies of S-CKD602 and NL-CKD602. In kind it is in vivo, human. The conditions noted are these: patients with refractory solid tumors.
Excerpt: as §1

On to `CC[C@@]1(O)C(=O)OCc2c1cc1n(c2=O)Cc2c-1nc1ccccc1c2CCNC(C)C` [NL-CKD602], for which the “% decrease at nadir in absolute neutrophil count (ANC)” value in data set [1] is on record as 86±11%. In the data set on monocytes (MO), the “% decrease at nadir in monocytes (MO)” value was 87±12% and the “ratio of % decrease in MO to ANC” value is recorded as 1.1±0.4.
